# What was measured:
# Adrenergic α2B = Adrenergic α2B (Homo sapiens, UniProt P18089); test: Safety screen; type: binding
# Description: (§1) Blood cell counts, kinase profiler, safety screen, bacterial cytotoxicity, Ames, micronucleus assays were performed by the company Eurofins (France).
# Estrogen ERα = Estrogen ERα (Homo sapiens, UniProt P03372); test: Safety screen; type: binding
# Description: as §1
# Glutamate, NMDA, Glycine = test: Safety screen; type: binding, rat
# Description: (§2) Blood cell counts, kinase profiler, safety screen, bacterial cytotoxicity, Ames, micronucleus assays were performed by the company Eurofins (France). The kinase profiler was performed by the company Eurofins (Discovery, Panlab and Cerep).
# Muscarinic M2 = Muscarinic M2 (Homo sapiens, UniProt P08172); test: Safety screen; type: binding
# Description: as §1
# Neuropeptide Y Y1 = Neuropeptide Y Y1 (Homo sapiens, UniProt P25929); test: Safety screen; type: binding
# Description: as §1
# [1] = biological target: Transporter, Serotonin (5- Hydroxytryptamine) (SERT) (Homo sapiens, UniProt P31645); test: Safety screen; type: binding
# Description: as §1
# Abl(Y253F)(h) = Abl(Y253F)(h) (Homo sapiens, UniProt P00519, Y253F); test: Kinase Profiler; type: biochemical
# Description: (§3) The kinase profiler was performed by the company Eurofins (Discovery, Panlab and Cerep).
# Aurora-B(h) = Aurora-B(h) (Homo sapiens, UniProt Q96GD4); test: Kinase Profiler; type: biochemical
# Description: as §2
# BMPR2(h) = BMPR2(h) (Homo sapiens, UniProt Q13873); test: Kinase Profiler; type: biochemical
# Description: as §2
# CaMKIδ(h) = CaMKIδ(h) (Homo sapiens, UniProt Q8IU85); test: Kinase Profiler; type: biochemical
# Description: as §3
# CDK16/cyclinY(h) = CDK16/cyclinY(h) (Homo sapiens, UniProt Q00536); test: Kinase Profiler; type: biochemical
# CDK16/cyclinY(h), sequence (Q00536 whole entry): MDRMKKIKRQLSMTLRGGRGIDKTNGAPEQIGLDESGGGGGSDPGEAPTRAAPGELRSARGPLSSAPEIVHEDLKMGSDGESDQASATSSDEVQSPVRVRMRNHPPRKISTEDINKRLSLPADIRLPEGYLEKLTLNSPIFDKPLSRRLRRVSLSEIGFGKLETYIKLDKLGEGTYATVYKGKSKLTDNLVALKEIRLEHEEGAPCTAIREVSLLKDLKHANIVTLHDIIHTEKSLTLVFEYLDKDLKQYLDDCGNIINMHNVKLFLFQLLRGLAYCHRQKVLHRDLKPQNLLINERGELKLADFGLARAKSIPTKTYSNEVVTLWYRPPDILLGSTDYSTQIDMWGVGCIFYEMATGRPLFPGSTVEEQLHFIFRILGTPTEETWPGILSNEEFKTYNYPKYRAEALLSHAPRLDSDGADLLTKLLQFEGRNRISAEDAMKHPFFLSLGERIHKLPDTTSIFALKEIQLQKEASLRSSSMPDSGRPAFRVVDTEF
# CDK16/cyclinY(h), sequence (Q8ND76 whole entry partner): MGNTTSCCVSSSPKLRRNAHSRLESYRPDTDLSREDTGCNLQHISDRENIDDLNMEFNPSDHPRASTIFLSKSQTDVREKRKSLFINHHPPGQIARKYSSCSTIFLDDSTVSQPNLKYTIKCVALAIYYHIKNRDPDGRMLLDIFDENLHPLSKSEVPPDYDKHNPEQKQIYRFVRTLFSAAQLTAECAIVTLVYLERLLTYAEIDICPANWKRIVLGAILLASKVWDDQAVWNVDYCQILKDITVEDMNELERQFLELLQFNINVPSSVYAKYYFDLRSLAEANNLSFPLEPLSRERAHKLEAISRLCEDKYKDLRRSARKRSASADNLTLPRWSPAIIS
# Description: as §2
# CLK1(h) = CLK1(h) (Homo sapiens, UniProt P49759); test: Kinase Profiler; type: biochemical
# CLK1(h), sequence (P49759 whole entry): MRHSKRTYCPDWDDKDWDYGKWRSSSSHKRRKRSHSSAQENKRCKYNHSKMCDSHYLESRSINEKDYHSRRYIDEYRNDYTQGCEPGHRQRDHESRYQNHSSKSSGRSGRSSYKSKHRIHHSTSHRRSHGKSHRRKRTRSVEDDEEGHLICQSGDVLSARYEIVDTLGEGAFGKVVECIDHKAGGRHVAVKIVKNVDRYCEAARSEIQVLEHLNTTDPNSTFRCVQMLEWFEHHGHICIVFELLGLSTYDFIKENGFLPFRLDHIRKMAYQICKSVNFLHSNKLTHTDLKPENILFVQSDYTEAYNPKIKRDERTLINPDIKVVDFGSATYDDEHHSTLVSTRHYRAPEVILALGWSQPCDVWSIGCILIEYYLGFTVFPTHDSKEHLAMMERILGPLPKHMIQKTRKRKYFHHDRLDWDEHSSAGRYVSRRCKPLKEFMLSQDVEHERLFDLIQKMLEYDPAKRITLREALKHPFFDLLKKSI
# Description: as §3
# DCAMKL2(h) = DCAMKL2(h) (Homo sapiens, UniProt Q8N568); test: Kinase Profiler; type: biochemical
# Description: as §2
# EphA5(h) = EphA5(h) (Homo sapiens, UniProt P54756); test: Kinase Profiler; type: biochemical
# EphA5(h), sequence (P54756 25-1037): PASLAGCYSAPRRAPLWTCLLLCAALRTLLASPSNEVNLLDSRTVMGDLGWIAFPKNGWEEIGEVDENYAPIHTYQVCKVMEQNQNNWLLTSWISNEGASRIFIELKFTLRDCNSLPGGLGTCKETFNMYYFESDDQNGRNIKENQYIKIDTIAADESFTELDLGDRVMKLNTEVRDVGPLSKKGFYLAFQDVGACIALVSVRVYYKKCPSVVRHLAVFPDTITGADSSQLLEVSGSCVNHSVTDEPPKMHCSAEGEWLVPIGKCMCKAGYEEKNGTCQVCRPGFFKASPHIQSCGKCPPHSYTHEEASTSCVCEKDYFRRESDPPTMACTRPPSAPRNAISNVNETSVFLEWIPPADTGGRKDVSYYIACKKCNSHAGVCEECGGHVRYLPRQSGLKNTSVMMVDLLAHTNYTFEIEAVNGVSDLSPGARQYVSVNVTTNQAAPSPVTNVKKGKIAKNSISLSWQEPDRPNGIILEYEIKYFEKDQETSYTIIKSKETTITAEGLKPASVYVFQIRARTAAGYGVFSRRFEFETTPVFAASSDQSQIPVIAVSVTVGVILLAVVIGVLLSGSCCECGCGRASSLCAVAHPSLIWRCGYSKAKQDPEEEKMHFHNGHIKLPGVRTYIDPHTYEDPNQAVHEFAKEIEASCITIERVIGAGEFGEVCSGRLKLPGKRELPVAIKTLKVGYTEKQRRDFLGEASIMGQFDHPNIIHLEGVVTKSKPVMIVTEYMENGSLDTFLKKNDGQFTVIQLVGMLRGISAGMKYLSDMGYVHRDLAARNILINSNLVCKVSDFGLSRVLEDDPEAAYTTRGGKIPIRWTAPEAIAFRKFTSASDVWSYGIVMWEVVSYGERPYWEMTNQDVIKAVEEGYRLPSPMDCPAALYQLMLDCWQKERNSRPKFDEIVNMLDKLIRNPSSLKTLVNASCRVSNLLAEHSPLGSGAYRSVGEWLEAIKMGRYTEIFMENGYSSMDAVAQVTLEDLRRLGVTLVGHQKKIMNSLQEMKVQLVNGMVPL
# Description: as §2
# JAK2(h) = JAK2(h) (Homo sapiens, UniProt O60674); test: Kinase Profiler; type: biochemical
# JAK2(h), sequence (O60674 whole entry): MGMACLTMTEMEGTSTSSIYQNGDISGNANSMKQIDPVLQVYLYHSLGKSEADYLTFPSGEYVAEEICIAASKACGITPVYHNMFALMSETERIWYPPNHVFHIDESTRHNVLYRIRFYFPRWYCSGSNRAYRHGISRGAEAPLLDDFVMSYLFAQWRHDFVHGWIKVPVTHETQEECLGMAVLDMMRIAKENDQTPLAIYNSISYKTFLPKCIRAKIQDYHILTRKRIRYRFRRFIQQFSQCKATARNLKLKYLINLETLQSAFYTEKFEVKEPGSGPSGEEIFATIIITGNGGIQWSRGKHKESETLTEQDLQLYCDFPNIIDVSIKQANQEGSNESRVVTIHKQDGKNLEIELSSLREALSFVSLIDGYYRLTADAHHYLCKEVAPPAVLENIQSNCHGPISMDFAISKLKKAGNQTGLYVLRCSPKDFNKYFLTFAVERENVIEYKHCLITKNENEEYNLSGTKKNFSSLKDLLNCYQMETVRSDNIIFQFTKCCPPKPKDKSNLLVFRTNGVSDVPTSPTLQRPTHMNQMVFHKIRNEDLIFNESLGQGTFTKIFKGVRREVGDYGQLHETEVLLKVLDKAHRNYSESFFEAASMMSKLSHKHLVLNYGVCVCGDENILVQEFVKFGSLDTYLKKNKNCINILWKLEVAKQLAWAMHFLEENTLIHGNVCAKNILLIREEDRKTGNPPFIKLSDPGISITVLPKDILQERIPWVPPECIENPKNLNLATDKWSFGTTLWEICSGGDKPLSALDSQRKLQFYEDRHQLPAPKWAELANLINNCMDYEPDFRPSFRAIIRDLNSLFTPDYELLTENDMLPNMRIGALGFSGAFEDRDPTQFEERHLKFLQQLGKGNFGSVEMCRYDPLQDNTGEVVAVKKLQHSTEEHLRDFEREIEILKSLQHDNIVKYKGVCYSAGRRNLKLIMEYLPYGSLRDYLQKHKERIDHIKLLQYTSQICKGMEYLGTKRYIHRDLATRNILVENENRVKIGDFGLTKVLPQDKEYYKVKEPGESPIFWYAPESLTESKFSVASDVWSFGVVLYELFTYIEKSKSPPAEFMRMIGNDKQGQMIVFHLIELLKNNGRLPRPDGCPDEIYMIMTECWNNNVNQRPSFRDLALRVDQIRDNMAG
# Description: as §3
# KDR(h) = KDR(h) (Homo sapiens, UniProt P35968); test: Kinase Profiler; type: biochemical
# Description: as §3
# LRRK2(h) = LRRK2(h) (Homo sapiens, UniProt Q5S007); test: Kinase Profiler; type: biochemical
# Description: as §3
# mTOR(h) = mTOR(h) (Homo sapiens, UniProt P42345); test: Kinase Profiler; type: biochemical
# Description: as §3
# NEK1(h) = NEK1(h) (Homo sapiens, UniProt Q96PY6); test: Kinase Profiler; type: biochemical
# Description: as §3
# PDGFRβ(h) = PDGFRβ(h) (Homo sapiens, UniProt P09619); test: Kinase Profiler; type: biochemical
# Description: as §3
# Pim-2(h) = Pim-2(h) (Homo sapiens, UniProt Q9P1W9); test: Kinase Profiler; type: biochemical
# Description: as §2
# PKD2(h) = PKD2(h) (Homo sapiens, UniProt Q9BZL6); test: Kinase Profiler; type: biochemical
# PKD2(h), sequence (Q9BZL6 whole entry): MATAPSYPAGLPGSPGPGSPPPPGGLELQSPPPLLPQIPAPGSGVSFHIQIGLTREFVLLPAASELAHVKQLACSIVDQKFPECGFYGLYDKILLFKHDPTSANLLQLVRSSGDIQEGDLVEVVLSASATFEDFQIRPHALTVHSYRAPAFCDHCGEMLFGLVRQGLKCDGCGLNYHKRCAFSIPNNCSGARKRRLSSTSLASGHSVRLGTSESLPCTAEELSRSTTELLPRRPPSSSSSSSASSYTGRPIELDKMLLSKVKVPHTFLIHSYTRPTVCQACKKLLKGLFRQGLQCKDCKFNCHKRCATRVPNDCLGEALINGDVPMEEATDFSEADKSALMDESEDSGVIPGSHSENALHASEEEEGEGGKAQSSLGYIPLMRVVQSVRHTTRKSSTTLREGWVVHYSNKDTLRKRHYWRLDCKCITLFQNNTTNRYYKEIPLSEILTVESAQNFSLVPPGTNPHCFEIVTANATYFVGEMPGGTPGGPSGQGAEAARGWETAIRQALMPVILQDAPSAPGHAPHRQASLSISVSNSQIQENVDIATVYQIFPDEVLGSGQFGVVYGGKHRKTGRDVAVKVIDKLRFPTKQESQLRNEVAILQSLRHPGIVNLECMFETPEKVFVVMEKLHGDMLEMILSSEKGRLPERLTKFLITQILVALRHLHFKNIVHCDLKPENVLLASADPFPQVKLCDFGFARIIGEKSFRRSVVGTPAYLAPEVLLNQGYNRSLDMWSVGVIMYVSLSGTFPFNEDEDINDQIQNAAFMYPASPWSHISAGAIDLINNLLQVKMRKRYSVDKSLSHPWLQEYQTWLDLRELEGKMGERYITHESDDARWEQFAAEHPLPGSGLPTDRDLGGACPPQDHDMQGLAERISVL
# Description: as §3
# ZAK(h) = ZAK(h) (Homo sapiens, UniProt Q9NYL2); test: Kinase Profiler; type: biochemical
# Description: as §3
# Adrenergic α2B, sequence (P18089 whole entry): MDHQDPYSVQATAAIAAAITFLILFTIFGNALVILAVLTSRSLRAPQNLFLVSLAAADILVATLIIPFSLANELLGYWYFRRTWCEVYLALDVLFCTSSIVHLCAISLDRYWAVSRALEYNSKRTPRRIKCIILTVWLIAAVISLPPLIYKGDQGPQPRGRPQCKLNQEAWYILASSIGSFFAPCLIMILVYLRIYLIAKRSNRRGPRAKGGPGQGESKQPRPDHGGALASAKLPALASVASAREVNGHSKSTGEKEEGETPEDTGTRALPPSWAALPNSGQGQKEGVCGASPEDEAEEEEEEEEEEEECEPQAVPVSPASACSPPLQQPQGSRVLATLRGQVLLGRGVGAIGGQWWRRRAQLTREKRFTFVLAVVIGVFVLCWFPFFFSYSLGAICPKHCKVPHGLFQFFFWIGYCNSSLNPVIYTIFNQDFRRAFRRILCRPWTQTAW
compound,measurement,setting,value
COc1ccc(OC)c(NS(=O)(=O)c2ccc(NC(=O)CCSc3ccc(C)cc3)cc2)c1 [Compound A41],% inh.,Adrenergic α2B,9%
same,% inh.,Estrogen ERα,10%
same,% inh.,"Glutamate, NMDA, Glycine",7%
same,% inh.,Muscarinic M2,12%
same,% inh.,Neuropeptide Y Y1,-2%
same,% inh.,[1],-3%
same,Activity(%),Abl(Y253F)(h),102%
same,Activity(%),Aurora-B(h),86%
same,Activity(%),BMPR2(h),100%
same,Activity(%),CaMKIδ(h),94%
same,Activity(%),CDK16/cyclinY(h),107%
same,Activity(%),CLK1(h),81%
same,Activity(%),DCAMKL2(h),103%
same,Activity(%),EphA5(h),110%
same,Activity(%),JAK2(h),114%
same,Activity(%),KDR(h),113%
same,Activity(%),LRRK2(h),111%
same,Activity(%),mTOR(h),101%
same,Activity(%),NEK1(h),104%
same,Activity(%),PDGFRβ(h),82%
same,Activity(%),Pim-2(h),110%
same,Activity(%),PKD2(h),100%
same,Activity(%),ZAK(h),109%
